“And” between values parts separate entries of the source, which are not always exact repeats. Equal values may be shown once.
How the values were obtained:
Type in all cases: cell-based, human
[1] = system: HepG2 cells; assay: Combined effect of anti-DR5 and Tig-R in HepG2 cells, MTT
Description: Cells Culture: HepG2 cells (liver cancer cells) were cultured in DMEM medium supplemented with 10% FBS, antibiotics (Pen Strep) and L-Glutamine. Cells were incubated in a 37° C., 5% CO2 incubator.
Antibody: Antibody against Human TRAIL R2/TNFRSF 10B, (from R&D Systems cat# MAB631-100).
Drug: Tig-R (5 and 7.5 ug/ml in culture medium).
Treatment. Cells in log-growth phase were used. Cells were plated in 96-welled plate with 10 K/well over night before treatment.
Antibodies are serially diluted with medium (started from 1 ug/ml) before adding to cell culture and incubated for 2 days.
For combination studies, Tig-R (5 ug/ml or 7.5 ug/ml) were added together with antibody. After a treatment for 2 days, the quantity of live cells is determined with MTT assay*. The percentage of cell growth with drugs was determined by comparing to those of no-drug (DMSO) control.
MTT assay. Cell growth activity was determined by MTT assay (Carmichael et al.,). […] The formation of formazan was dissolved with DMSO and the O.D. at 490 nm was measured by an ELISA reader. The MTT level of cells before drug-treatment was also measured (T0). The % cell-growth (%G) is calculated as: %G = (TD-T0 / TC-T0) × 100 (1) where TC or TD represent O.D. readings of control or drug-treated cells.
When T0 > TD, then the negative growth (cytotoxicity) is expressed as - % of the control and is calculated as: - %G = (TD-T0 / T0) × 100.

[2] = system: DR5 (TNFRSF10B) in HepG2 cells; assay: DR5 Western blot, HepG2 cells; conditions: 2 days
Description: (§1) A. Cells and drug-treatment: HepG2 cells (liver cancer cells), CAPAN cells, ES2 cells (Ovary cell) were cultured in DMEM medium with 10% FBS, antibiotics (Pen Strep) and L-Glutamine in a 37° C., 5% CO2 incubator. Cells in log-growth phase were treated with Tig-R (10 ug/ml), Tig-S (4 ug/ml) or DMSO (as control) for 2 days.
(§2) B. Total cell protein extraction: Drug-treated cells were collected, pelleted with centrifugation. The cell pellet was extracted with SDS-Sample buffer (containing PMSF and protease inhibitors cocktail). About 0.1 gram cell pellet was extracted in 1 ml of extraction buffer. The cell extract was then incubated in boiling water bath for 6 minutes with occasionally vortexing. The protein extract was immediately frozen in -80° C. before used.
(§3) C. SDS gel electrophoresis: 10-20 ug of protein sample was loaded into each lane of a 10% SDS gel. Electrophoresis was conducted with 100 volt constant for 2 hours.
(§4) D. Western Blot: Separated proteins from SDS gel were transferred to a nitrocellulose membrane, which was blocked with 5% non-fat dry milk. The membrane was then exposed to 1st antibody (anti-TNFRSF10B) over night, then washed. The membrane was then incubated in 2nd antibody (anti-mouse-AP conjugated) for an hour, then washed. The immuno-bands were developed with BCIP/NBT substrate.
(§5) E. Another SDS gel with same sample loading was stained with Coomassie Brilliant Blue (CBB) for protein staining.
(§6) F. Determination of Western blot band intensity: The band-images of Western blot were captured with a digital camera and the intensity of bands was determined using “Image J” software.

[3] = system: DR5 (TNFRSF10B) in ES2 cells; assay: Induction of DR5 in ES2 cells, Western blot; conditions: experiment 1, column head R 7.5, 2 days
[4] = system: DR5 (TNFRSF10B) in CAPAN cells; assay: DR5 Western blot, CAPAN cells; conditions: Tig-R 10 ug/ml, 2 days
Description: as §1, §2, §3, §4, §5, §6

[5] = system: DR5 (TNFRSF10B) in ES2 cells; assay: Induction of DR5 in ES2 cells, Western blot
Description: 1). Cells and drug-treatment: ES2 cells (Ovarian cancer cells) were cultured in RPMI1640 medium with 10% FBS, antibiotics (Pen Strep) and L-Glutamine in a 37° C., 5% CO2 incubator. Cells in log-growth phase were treated with Tig-R (10 ug/ml), or DMSO (as control) for 2 days.
2). Total cell protein extraction: Drug-treated cells were collected, pelleted with centrifugation. The cell pellet was extracted with SDS-Sample buffer (containing PMSF and protease inhibitors cocktail). About 0.1 gram cell pellet was extracted in 1 ml of extraction buffer. The cell extract was then incubated in boiling water bath for 6 minutes with occasionally vortexing. The protein extract was immediately frozen in -80° C. before used.
3). SDS gel electrophoresis: 10-20 ug of protein sample was loaded into each lane of a 10% SDS gel. Electrophoresis was conducted with 100 volt constant for 2 hours.
4). Western Blot: Separated proteins from SDS gel were transferred to a nitrocellulose membrane, which was blocked with 5% non-fat dry milk. The membrane was then exposed to 1st antibody (anti-TNFRSF10B) over night, then washed. The membrane was then incubated in 2nd antibody (anti-mouse-AP conjugated) for an hour, then washed. The immuno-bands were developed with BCIP/NBT substrate.
5. Another SDS gel with same protein loading was stained with Coomassie Brilliant Blue (CBB) for protein staining.
as §1, §2, §3, §4, §5, §6

[6] = system: DR5 (TNFRSF10B) in U2OS cells; assay: DR5 Western blot, U2OS cells
[7] = HepG2 cells, Tig-R 10 ug/ml, single experiments 1-4
[8] = ES2 cells, Tig-R, 2 days, single experiments 2-5
[9] = U2OS cells, Tig-R, single experiments 1-2

Substance: 24,28-O-Tigloyl-3β,16α, 21β, 22a, 24β, 28-hexahydroxyolean-12-ene [Tig-R]
- combined effect with anti-DR5 antibody ([1]; HepG2, Tig-R 5 or 7.5 ug/ml): synergistic
- inhibition of HepG2 cells' growth ([1]; Tig-R alone 5 ug/ml, 2 days): 15-20%
- increase of DR5 over DMSO control cells ([2]; HepG2, Tig-R 10 ug/ml): 69%
- DR5 band intensity, % of DMSO, Average (%) ([2]; HepG2 cells, Tig-R 10 ug/ml, average of 4 experiments, SD 37): 169%
- DR5 Western blot band intensity (Image J) [2, 7]: 31752 and 19291 and 22435 and 33645
- DR5 band intensity, % of DMSO [2, 7]: 194% and 122% and 202% and 156%
- DR5 Western blot band intensity (Image J) [3]: 29902
- DR5 band intensity, % of DMSO [3]: 157%
- DR5 Western blot band intensity (Image J) ([4]; CAPAN cells): 29128
- DR5 band intensity, % of DMSO ([4]; CAPAN cells): 151%
- increase of DR5 over DMSO control cells ([4]; CAPAN): 51%
- increase of DR5 over DMSO control cells ([5]; ES2, Tig-R 10 ug/ml, 2 days (Experiment 46)): 61%
- increase of DR5 ([5]; ES2 cells, 10 ug/ml, 2 days (Experiment 42)): at least 2 folds
- DR5 band intensity, % of DMSO, Average (%) ([5]; ES2 cells, Tig-R, 2 days, average of 5 experiments): 161%
- DR5 Western blot band intensity (Image J) [5, 8]: 25103 and 17941 and 17133 and 19157
- DR5 band intensity, % of DMSO [5, 8]: 185% and 200% and 148% and 113%
- DR5 band intensity, % of DMSO, Average (%) ([6]; U2OS cells, Tig-R, average of 2 experiments): 206%
- DR5 Western blot band intensity (Image J) [6, 9]: 18269 and 16969
- DR5 band intensity, % of DMSO [6, 9]: 209% and 203%
- increase of DR5 over DMSO control cells ([6]; U2OS, Tig-R treatment): 106%
